From patent US11149034B2, “Derivatives of luciferin and methods for their synthesis” (UNIVERSITY OF CAPE TOWN, priority 2017, dated 2021)
Several values for one entry are separate records, joined by “and”; a condition that tells them apart may be missing. Equal entries are not always repeated. Where two headings read alike, the source gives them in different places.

What was measured:
[1] = test system: purified firefly luciferase (luc) expressed from E. coli; conditions: cited from earlier work; for λmax (lit.): literature value
[2] = test system: purified firefly luciferase (luc) expressed from E. coli; experiment: Bioluminescence emission scans; assay type: biochemical, Photinus pyralis; conditions: for bioluminescence emission wavelength: FIG. 7, 10 nM luciferase with 100 μM substrate; for λmax: bioluminescence emission with luciferase
Experimental: FIG. 7 is a bioluminescence emission spectrum for 10 nM luciferase with 100 μM D-thioluciferin.
Purified luciferase in enzyme buffer was rapidly injected into a cuvette containing substrate in substrate buffer to a final enzyme concentration of 100 nM and a final substrate concentration of 10 μM. The emission from 400 to 800 nm was recorded in a fluorimeter with closed excitation slits 10 s after injection.

WT luciferase (Ppy Luc) = experiment: Burst kinetics assays / rates of reduction in luminescence; assay type: biochemical, Photinus pyralis
Experimental: FIG. 9 is a burst kinetics profile of purified 10 nM luciferase treated with 100 μM D-thioluciferin.
[…] […] Data acquisition was performed with SIS for 2020n v1.9.0 software. Data are reported as Relative Light Units (RLU). To correct for the wavelength sensitivity of the PMT in the 20/20n, total flux was also measured using the IVIS-100 as described above with a final enzyme concentration of 10 nM and a final substrate concentration of 250 μM. […] The correction factor of each enzyme/substrate pair was calculated by dividing the normalized IVIS data by the normalised 20/20n data. All 20/20n data were then multiplied by their respective correction factors.

[3] = test system: purified wild type (WT) luciferase (Photinus pyralis (luciferase) [Ppy Luc]); experiment: Purified protein luminescence assays (Michaelis-Menten kinetics, relative emission intensity); assay type: biochemical; conditions: for Vmax / Km: Michaelis-Menten fit; for Km: apparent Km, WT luciferase, read-out: Km (App.); for luminescence output when treated with luciferase: 0.1 μM solution, luciferase in enzyme buffer, 10 nM
Experimental: FIG. 10 is a relative luminescence emission intensity of the core luciferins (6-hydroxy, 6-amino, 6-thiol) at 0.1 μM substrate concentration and at a final luciferase concentration of 10 nM.
FIG. 11 illustrates luminescence output of 0.1 μM of protected D-thioluciferin sulfide, D-thioluciferin homodisulfide, and free D-thioluciferin at a final luciferase concentration of 10 nM (control readings were recorded for substrates in the absence of the luc enzyme). The RLU were determined in triplicate and are represented as the mean±SEM.
FIG. 13 is a Michaelis-Menten graph for D-Thioluciferin. […] The assays were performed in triplicate and are represented as the mean and each curve was fit to the Michaelis-Menten equation by nonlinear regression (GraphPad 5.0) to determine apparent Km and Vmax.
Luminescence assays were initiated by adding 30 μL of purified luciferase in enzyme buffer (20 mM Tris [pH 7.4], 0.1 mM EDTA, 1 mM TCEP, and 0.8 mg/mL BSA) to 30 μL 2× substrate in substrate buffer (20 mM Tris [pH 7.4], 0.1 mM EDTA, 8 mM MgSO4, and 4 mM ATP) in a black 96-well plate. Imaging was performed one minute after enzyme addition using a Xenogen® IVIS-100® at a final enzyme concentration of 10 nM and final substrate concentrations ranging from 0.122 to 250 μM. Data acquisition and analysis was performed with Living Image® software. Data are reported as total flux (p/s) for each ROI corresponding to each well of the 96-well plate.

[4] = literature value; cited from earlier work
[5] = test system: purified wild type (WT) luciferase (Photinus pyralis (luciferase) [Ppy Luc]); conditions: cited from earlier work
[6] = Fluorescence spectrophotometry (excitation emission spectra); assay type: physicochemical; conditions: for fluorescence emission intensity: excitation at 390 nm, FIG. 15
Experimental: The free D-thioluciferin has a greater intensity relative to the sulfide which is promising for further sensor development.
Excitation and emission spectra were recorded on a Varian Cary Eclipse fluorometer equipped with a regulated temperature cell holder and Hellma, Suprasil® quartz fluorescence cuvettes of 10 mm pathlength and 1.5 mL volume capacity. Emission spectra were recorded at an excitation wavelength corresponding to previously recorded absorption maxima. Samples were prepared as a 0.1 mM DMSO solution, unless otherwise stated, and were scanned from 200 nm to 800 nm (Ex. Slit/Em. Slit 5 nm) at a scan rate of 600.00 nm/mn. Data were analysed using Scan Software Version 1.1.

[7] = test system: purified firefly luciferase (10 nM) expressed from E. coli; experiment: Inhibition of firefly luciferase by D-thioluciferin sulfide (thioacrylate); assay type: biochemical, Photinus pyralis; conditions: D-thioluciferin 10 μM, increasing sulfide
Experimental: FIG. 14 is a bar graph showing potential inhibitory effects of firefly luciferase by D-thioluciferin sulfide (thioacrylate). D-thioluciferin (10 μM) was treated with purified firefly luciferase (10 nM) expressed from E. coli and the luminescence recorded in the absence and presence of the sulifide.

[8] = measured for 15 seconds post-specified time
[9] = FIG. 10, 0.1 μM substrate, 10 nM luciferase

Structure (SMILES)	λmax (lit.) [1] [nm]	bioluminescence emission wavelength [2]	λmax [2] [nm]	time post-addition of rapid decrease in luminescent activity (WT luciferase (Ppy Luc)) [min]	Rate 5 min post-addition (rate of reduction in luminescence) (WT luciferase (Ppy Luc); [8]) [RLU/s]	Rate 20 minutes post addition (rate of reduction in luminescence) (WT luciferase (Ppy Luc); [8]) [RLU/s]	Vmax ([3]; 10 nM luciferase)	Km [3]	Fluorescence (lit.) [4] [nm]	emission signal, fold less intense compared to D-luciferin [3, 9] [fold]	fluorescence emission intensity [6]	luminescence output when treated with luciferase [3]	ability to produce bioluminescence (luciferase substrate) ([3]; FIG. 11)	other results
O=C(O)[C@H]1CSC(c2nc3ccc(O)cc3s2)=N1 [D-luciferin, (S)-2-(6-hydroxybenzo[d]thiazol-2-yl)-4,5-dihydrothiazole-4-carboxylate]	551	547 nm	553	10	9.300 ± 0.9815	0.3400 ± 0.05773	57 ± 13 RLU/s	8.3 µM and 8 µM	528	–	–	–	–	relative emission λmax ([1]; background statement): 594 nm; bioluminescence emission wavelength ([2]; listed as D-Luciferin): 557 nm; relative luminescence emission intensity, fold greater than both D-aminoluciferin and D-thioluciferin [3, 9]: 100 fold
Nc1ccc2nc(C3=N[C@@H](C(=O)O)CS3)sc2c1 [D-aminoluciferin, (S)-2-(6-aminobenzo[d]thiazol-2-yl)-4,5-dihydrothiazole-4-carboxylic acid]	594	593 nm	597	1	1.216 ± 0.1305	0.1510 ± 0.007506	13 ± 2.2 RLU/s	0.39 ± 0.08 µM	517	100	–	–	–	Vmax (lit.) ([5]; literature value): 169 ± 2.6 photons/min; Km ([5]; literature value, read-out: Km (lit)): 0.62 ± 0.05 µM; Km ([5]; previously calculated, comparison, read-out: Km previously calculated): 0.39 to 0.69 µM
O=C(O)[C@H]1CSC(c2nc3ccc(S)cc3s2)=N1 [D-thioluciferin, (S)-2-(6-mercaptobenzo[d]thiazol-2-yl)-4,5-dihydrothiazole-4-carboxylic acid]	–	599 nm and 600 nm	599	–	0.0067	0.0022	0.7597 ± 0.1071 RLU/s and 0.6661 ± 0.1522 RLU/s	0.117 µM and 0.1 µM	–	100	strong fluorescence emission	–	–	period over which light of constant intensity is sustained (WT luciferase (Ppy Luc)): 20 min; burst kinetics profile (WT luciferase (Ppy Luc); FIG. 9, 10 nM luciferase, 100 μM substrate): robust initial burst of light followed by sustained light output of much lower intensity; Rate 1 min post-peak emission (rate of reduction in luminescence) (WT luciferase (Ppy Luc); [8]): 4.929 ± 0.1584 RLU/s; emission, fold greater over the background [3]: > 100 fold; luminescence output, fold greater than protected thioacrylate (sulfide) ([3]; FIG. 11, 0.1 μM, 10 nM luciferase): 90 fold; Km ([3]; listed as D-Thioluciferin): 0.098 ± 0.0147 µM; Fluorescence ([6]; fluorescence emission): 500 nm
O=C(O)C1CSC(c2nc3ccc(SSc4ccc5nc(C6=NC(C(=O)O)CS6)sc5c4)cc3s2)=N1 [D-thioluciferin disulfide]	–	–	–	–	–	–	–	–	–	–	–	much higher luminescence output than its corresponding control	neither of which appeared to be bioluminescent substrates	–
O=C(/C=C/Sc1ccc2nc(C3=N[C@@H](C(=O)O)CS3)sc2c1)OCc1ccccc1 [D-thioluciferin thioacrylate, (S,E)-2-(6-((3-(benzyloxy)-3-oxoprop-1-en-1-yl)thio)benzo[d]thiazol-2-yl)-4,5-dihydrothiazole-4-carboxylic acid]	–	–	–	–	–	–	–	–	–	–	only weakly fluorescent	negligible	neither of which appeared to be bioluminescent substrates	inhibition of luciferase ([7]; FIG. 14): strongly inhibitory; inhibition of luciferase ([7]; FIG. 14, listed as D-thioluciferin sulfide (thioacrylate)): decrease in emission intensity with increasing concentration of the sulfide
